The source of these data is patent US9782452B2, “Methods for stimulating hematopoietic recovery by inhibiting TGFβ signaling” (Cornell University, priority 2011, dated 2017).

Entries after “also recorded” stand apart in the source; their conditions may differ.

Type in all cases: in vivo, mouse
One assay has as its system C57BL/6J mice. The experiment in a line: Blood count recovery after myelosuppressive 5FU chemotherapy. The procedure: The inventors used 5FU (250 mg/kg, 1 i.p.) for C57BL/6J mice, or 5FU 150 mg/kg (1 i.p.) for mice that had been previously transplanted. To assess blood count recovery, the inventors collected peripheral blood (50 μl) into EDTA-coated capillary tubes (Fisher Scientific). Differential blood counts were measured using an automated Bayer ADVIA 120 Multispecies Hematology Analyzer calibrated for murine blood (Bayer HealthCare).
The inventors treated cohorts of mice with 5FU (250 mg/kg) on day 0 and then with either the TGFβ-neutralizing antibody 1D11 (I) (10 mg/kg) or a non-targeted control antibody 13C4 (C) (10 mg/kg) on days 5, 7 and 9. The 1D11 and 13C4 antibodies were generously provided by Genzyme Corp., Framingham, Mass., USA. Mice were treated with 5FU (250 mg/kg) on day 0 and then received either LY364947 (1 mg/kg, i.p.) or an equal volume of PBS six times over a period of 9 days. Hematopoietic reconstitution was followed by monitoring peripheral blood counts and multidimensional flow cytometry on bone marrow and spleen cells, as indicated.

The test system of another assay is LKS+ HSPCs. The experiment in a line: Multidimensional flow cytometry of BM HSPC regeneration after 5FU. To be noted: 1 mg/kg IP 6 times over 9 days, vs control. As for the experimental part:
(§1) Mice were killed by CO2 asphyxiation and femur, tibia and humeri were dissected free of muscle and tendons and then crushed in DMEM using a mortar and pestle. The resulting cell suspension was filtered through a 70-μm filter and washed in PEB (2 mM EDTA, 0.2% BSA in PBS pH 7.4). Spleens were isolated and then minced prior to grinding through a 70-μm filter to generate single cell suspensions. Lineage negative (Lin^−) cells were purified using a biotinylated lineage cell detection cocktail (Miltenyi Biotec). Lineage depleted cells were then stained with streptavidin-Qdot 605 (eBioscience), Horizon V450-conjugated anti-CD117 (BD Biosciences), PECy7-conjugated Sca-1 (BioLegend), Alexa700-conjugated CD34 (BD Biosciences), APC-conjugated CD135 (Flk2) (BioLegend), and PerCP/Cy5.5-conjugated CD16/32 (FcR). Hematopoietic populations were identified as following: LT-HSCs, LKS^+ CD34^−Flk2^−; ST-HSCs, LKS^+ CD34^+ Flk2^−; MPPs, LKS^+ CD34^+ Flk2^+; CMPs, LKS^− CD34^+ FcRlow; GMPs, LKS^− CD34^+ FcR^+; and MEPs, LKS^− CD34^− FcR^− MEPs. DAPI was used to exclude dead cells during flow cytometric analysis. […] The cell cycle status of LKS^+SLAM cells was analyzed using this same strategy. Analysis gates were set based upon the fluorescence minus one (FMO) fluorophore. […]
For orientation: Flow cytometry measures light scatter and fluorescence of single cells or particles in a stream.

Assay [1] concerns LKS+ HSPCs and LKS+SLAM cells. The experiment in a line: Bi-dimensional cell cycle analysis of BM HSPCs after 5FU. The note with it: D15 after 5FU, 1 mg/kg IP 6 times over 9 days; vs 5FU only. As for the experimental part:
as §1

The mark [2] stands for this setting: 5FU 250 mg/kg D0, 1 mg/kg IP 6 times over 9 days, vs PBS.

Take `c1ccc(-c2[nH]ncc2-c2ccnc3ccccc23)nc1` [LY364947]: in the assay on C57BL/6J mice (setting [2]), the PLT recovery entry is “faster” and the WBC recovery result is “faster”. The blood counts recovery entry in the assay with C57BL/6J mice (after 5FU, vs vehicle control) is listed as “recovered blood counts more rapidly”. The “expansion of LKS+SLAM cells” value with LKS+ HSPCs is given as “greater expansion”. Besides, the “cycling of LKS+ and LKS+SLAM cells” value in assay [1] is “prolonged cycling; also recorded: persisted in cycle”.
